Experimental data published in patent US20260028336A1 (Arcus Biosciences, Inc., priority 2022, published 2026).

Assays:
[1] = molecular target: T1, Cbl-b (Homo sapiens, UniProt Q13191); assay: Cbl-b probe displacement HTRF binding assay; conditions: 0.4 nM biotinylated Cbl-b, 150 nM BODIPY probe
T1 construct: biotin (biotinylated)
How it was run: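 Biotinylated Cbl-b was preincubated with compound for 60 min at room temperature in HEPES/NaCl/Triton/TCEP/BSA buffer. BODIPY probe was added for 15 min, followed by streptavidin-terbium, and the HTRF signal was read. Displacement was normalised to DMSO and no-protein controls, and affinity was obtained from a four-parameter dose-response fit.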

[2] = test system: Jurkat cells; assay: IL-2 secretion assay in CD3/CD28-activated Jurkat cells (AlphaLISA); type: cell-based; conditions: Homo sapiens, CD3/CD28 T Cell Activator, 24 h, IL-2 AlphaLISA
How it was run: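 Jurkat cells (50,000/well) were preincubated 1 h at 37° C with compound in a 16-point 1:2 series spanning 10 μM to 300 pM final. Cells were then activated with CD3/CD28 T cell activator, and secreted IL-2 was read by AlphaLISA. EC50 came from 4-parameter logistic fits.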

T1 sequence (Q13191 whole entry, species assumed): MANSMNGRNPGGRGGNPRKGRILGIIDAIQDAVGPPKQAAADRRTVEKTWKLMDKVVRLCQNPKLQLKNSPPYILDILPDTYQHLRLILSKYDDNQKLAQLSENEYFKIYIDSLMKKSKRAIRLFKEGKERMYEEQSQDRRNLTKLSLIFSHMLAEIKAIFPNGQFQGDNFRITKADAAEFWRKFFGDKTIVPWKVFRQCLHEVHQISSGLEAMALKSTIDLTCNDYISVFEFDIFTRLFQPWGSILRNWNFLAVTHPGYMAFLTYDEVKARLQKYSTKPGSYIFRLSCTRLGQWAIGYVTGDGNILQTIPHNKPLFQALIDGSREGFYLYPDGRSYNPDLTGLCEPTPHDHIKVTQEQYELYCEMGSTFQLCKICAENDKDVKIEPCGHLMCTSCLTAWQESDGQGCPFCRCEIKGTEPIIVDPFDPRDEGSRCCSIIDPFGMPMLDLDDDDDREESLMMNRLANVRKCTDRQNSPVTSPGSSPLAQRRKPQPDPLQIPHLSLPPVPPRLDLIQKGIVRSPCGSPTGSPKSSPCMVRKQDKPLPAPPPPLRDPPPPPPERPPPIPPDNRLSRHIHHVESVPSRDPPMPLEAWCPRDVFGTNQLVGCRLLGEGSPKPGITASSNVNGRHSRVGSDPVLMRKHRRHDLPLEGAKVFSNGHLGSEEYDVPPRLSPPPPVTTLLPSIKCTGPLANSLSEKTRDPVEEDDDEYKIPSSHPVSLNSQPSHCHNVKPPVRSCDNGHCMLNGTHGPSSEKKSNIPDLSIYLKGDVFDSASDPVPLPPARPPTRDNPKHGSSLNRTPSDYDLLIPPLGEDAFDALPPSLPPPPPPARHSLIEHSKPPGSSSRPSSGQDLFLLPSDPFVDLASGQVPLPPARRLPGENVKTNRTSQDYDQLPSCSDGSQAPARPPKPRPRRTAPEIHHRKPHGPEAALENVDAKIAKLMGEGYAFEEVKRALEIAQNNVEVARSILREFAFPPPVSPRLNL

SMILES	IC50 [1]	EC50 [2]
Cn1cnnc1C1(c2cccc(-n3cc(C4CC4)c4cc(CN[C@@H]5CCOC5)[nH]c4c3=O)c2)CC(F)(F)C1 [Example 91, 4-cyclopropyl-6-{3-[3,3-difluoro-1-(4-methyl-4H-1,2,4-triazol-3-yl)cyclobutyl]phenyl}-2-{[(oxolan-3-yl)amino]methyl}-1H,6H,7H-pyrrolo[2,3-c]pyridin-7-one]	100 to 1000 nM	> 5000 nM
Cn1cnnc1[C@]1(c2cccc(-n3cc(C4CC4)c4cn[nH]c4c3=O)c2)C[C@H](C)C1 [Example 7, 4-cyclopropyl-6-{3-[(1r,3s)-3-methyl-1-(4-methyl-4H-1,2,4-triazol-3-yl)cyclobutyl]phenyl}-1H,6H,7H-pyrazolo[3,4-c]pyridin-7-one]	< 100 nM	1000 to 5000 nM
CO[C@H]1C[C@@](c2cccc(-n3cc(C4CC4)c4cc(CN5CCC[C@H](C)C5)[nH]c4c3=O)c2)(c2nncn2C)C1 [Example 102, cis-4-cyclopropyl-6-[3-[3-methoxy-1-(4-methyl-1,2,4-triazol-3-yl)cyclobutyl]phenyl]-2-[[(3S)-3-methylpiperidin-1-yl]methyl]-1H-pyrrolo[2,3-c]pyridin-7-one]	< 100 nM	< 100 nM
Cn1cnnc1C1(c2cccc(-n3cc(C4CC4)c4cc(CN5CCC6(CC6)C5)[nH]c4c3=O)c2)CC2(CC2)C1 [Example 70, 2-({5-azaspiro[2.4]heptan-5-yl}methyl)-4-cyclopropyl-6-{3-[5-(4-methyl-4H-1,2,4-triazol-3-yl)spiro[2.3]hexan-5-yl]phenyl}-1H,6H,7H-pyrrolo[2,3-c]pyridin-7-one]	< 100 nM	100 to 1000 nM
C[C@H]1CCCN(Cc2cc3c(C4CC4)cn(-c4cccc(C(C)(F)c5nncn5C)c4)c(=O)c3[nH]2)C1 (stereo partly drawn) [Example 163, 4-cyclopropyl-6-[3-[1-fluoro-1-(4-methyl-1,2,4-triazol-3-yl)ethyl]phenyl]-2-[[(3S)-3-methylpiperidin-1-yl]methyl]-1H-pyrrolo[2,3-c]pyridin-7-one]	< 100 nM	< 100 nM
CC1CC(c2cccc(-n3cc(C4CC4)c4cc(CN5CCN(C)C[C@@H]5C(C)C)[nH]c4c3=O)c2)(c2nncn2C)C1 (stereo partly drawn) [Example 68, 4-cyclopropyl-2-{[(2S)-4-methyl-2-(propan-2-yl)piperazin-1-yl]methyl}-6-{3-[(1r,3s)-3-methyl-1-(4-methyl-4H-1,2,4-triazol-3-yl)cyclobutyl]phenyl}-1H,6H,7H-pyrrolo[2,3-c]pyridin-7-one]	< 100 nM	100 to 1000 nM
C[C@H]1CCCN(Cc2nc3c(C4CC4)cn(-c4cccc(C5(c6nncn6C)CC(F)(F)C5)c4)c(=O)c3[nH]2)C1 [Example 112, 7-cyclopropyl-5-[3-[3,3-difluoro-1-(4-methyl-1,2,4-triazol-3-yl)cyclobutyl]phenyl]-2-[[(3S)-3-methylpiperidin-1-yl]methyl]-3H-imidazo[4,5-c]pyridin-4-one]	< 100 nM	< 100 nM
C[C@H]1CCCN(Cc2cc3c(C4CC4)cn(-c4cccc([C@]5(c6nccn6C)C[C@H](F)C5)c4)c(=O)c3[nH]2)C1 [Example 126, 4-cyclopropyl-6-(3-((1r,3S)-3-fluoro-1-(1-methyl-1H-imidazol-2-yl)cyclobutyl)phenyl)-2-(((S)-3-methylpiperidin-1-yl)methyl)-1,6-dihydro-7H-pyrrolo[2,3-c]pyridin-7-one]	< 100 nM	< 100 nM
C[C@H]1CCCN(Cc2cc3c(C4CC4)cn(-c4cccc(C5(c6nncn6CC(F)(F)F)CC6(CC6)C5)c4)c(=O)c3[nH]2)C1 [Example 147, 4-Cyclopropyl-2-[[(3S)-3-methylpiperidin-1-yl]methyl]-6-[3-[5-[4-(2,2,2-trifluoroethyl)-1,2,4-triazol-3-yl]spiro[2.3]hexan-5-yl]phenyl]-1H-pyrrolo[2,3-c]pyridin-7-one]	< 100 nM	1000 to 5000 nM
Cn1cnnc1[C@]1(c2cccc(-n3cc(C(F)(F)F)c4cc[nH]c4c3=O)c2)C[C@@H](C)C1 (single isomer, unassigned) [Example 37]	< 100 nM	100 to 1000 nM
Cn1nncc1-c1c[nH]c2c(=O)n(-c3cccc([C@]4(c5nncn5C)C[C@@H](C)C4)c3)cc(C3CC3)c12 [Example 133, 4-Cyclopropyl-3-(1-methyl-1H-1,2,3-triazol-5-yl)-6-{3-[(1R,3S)-3-methyl-1-(4-methyl-4H-1,2,4-triazol-3-yl)cyclobutyl]phenyl}-1H,6H,7H-pyrrolo[2,3-c]pyridin-7-one]	< 100 nM	> 5000 nM
